{"source": "patent US11324768B2", "about": "“Applications of triacetyl-3-hydroxyl phenyl adenosine in treating vascular inflammations or improving vascular endothelium functions” (priority 2016, dated 2022)", "key": {"ApoE−/− mice": {"test_system": "ApoE−/− mice", "assay": "Plaque area in ApoE−/− mice (oil red O staining of aorta and aortic root)", "type": "in vivo", "details": "for plaque area, Overall length of aorta: in % (unit assumed)", "protocol": "After 1 week of adaptive feeding, the animals were randomly divided into 7 groups according to body weight: normal control group, model control group A769662 (30 mg/kg) administration group, metformin (260 mg/kg) administration group, IMM-H007 low, medium, and high administration groups (50, 100, 200 mg/kg), 8 in each group, and were given a high-fat diet (78.6% basal diet, 10% lard, 1.0% cholesterol, 10% egg yolk powder, and 0.4% bile salt), and simultaneously administered intragastrically at a dose of 0.1 ml/10 g body weight, […] model.\nThe aortic root was stained with oil red O and the overall length of the aorta was stained with oil red O. The pathological images were analyzed by Photoshop, Image 1, and Image-Pro Plus softwares. The pathological grading data were statistically analyzed using Chi-square test."}, "AMPK-eNOS pathway": {"test_system": "AMPK-eNOS pathway", "assay": "Mechanism of improving endothelial function (Western Blotting, total nitric oxide synthase activity in serum)", "type": "in vivo", "details": "ApoE−/− mice", "protocol": "After 1 week of adaptive feeding, the animals were randomly divided into 7 groups according to body weight: normal control group, model control group A769662 (30 mg/kg) administration group, metformin (260 mg/kg) administration group, IMM-H007 low, medium, and high administration groups (50, 100, 200 mg/kg), 8 in each group, and were given a high-fat diet (78.6% basal diet, 10% lard, 1.0% cholesterol, 10% egg yolk powder, and 0.4% bile salt), and simultaneously administered intragastrically at a dose of 0.1 ml/10 g body weight, and were continuously administered and fed for 8 weeks to establish an atherosclerosis model.\nThe expression levels of AMPK, pAMPK, peNOS, eNOS, Caveolin-1 proteins were analyzed and measured by Western Blotting to determine the total nitric oxide synthase activity in serum."}}, "data": [{"smiles": "CC(=O)OCC1OC(n2cnc3c(Nc4cccc(O)c4)ncnc32)C(OC(C)=O)C1OC(C)=O", "note": "(centres unmarked) [IMM-H007, 2′,3,′ 5′-triacetyl-N^6(3-hydroxyphenyl)adenosine]", "values": [{"measurement": "plaque area, Frozen section of root of aorta %", "setting": "ApoE−/− mice; 50 mg/kg", "value": "3.66 ± 2.65", "unit": "%"}, {"measurement": "plaque area, Overall length of aorta", "setting": "ApoE−/− mice; 50 mg/kg", "value": "6.18 ± 3.57"}, {"measurement": "plaque area, Frozen section of root of aorta %", "setting": "ApoE−/− mice; 100 mg/kg", "value": "2.36 ± 0.43", "unit": "%"}, {"measurement": "plaque area, Overall length of aorta", "setting": "ApoE−/− mice; 100 mg/kg", "value": "3.93 ± 2.40"}, {"measurement": "plaque area, Frozen section of root of aorta %", "setting": "ApoE−/− mice; 200 mg/kg", "value": "2.97 ± 0.92", "unit": "%"}, {"measurement": "plaque area, Overall length of aorta", "setting": "ApoE−/− mice; 200 mg/kg", "value": "3.67 ± 1.69"}, {"measurement": "lipid accumulation at the plaque site, section staining of the root of aorta", "setting": "ApoE−/− mice; high-fat diet for 10 weeks", "value": "a decrease"}, {"measurement": "plaque accumulation in the arch of aorta and overall length of aorta", "setting": "ApoE−/− mice; high-fat diet for 10 weeks", "value": "significantly reduce"}, {"measurement": "NO production", "setting": "AMPK-eNOS pathway", "value": "increases"}, {"measurement": "AMPK-eNOS pathway", "setting": "AMPK-eNOS pathway; Western Blotting", "value": "activation"}, {"measurement": "activity of nitric oxide synthase", "setting": "AMPK-eNOS pathway; serum", "value": "improves"}]}]}
